ChEMBL document CHEMBL3779793, “Squaraines bearing halogenated moieties as anticancer photosensitizers: Synthesis, characterization and biological evaluation” (Eur J Med Chem, 2016)
Blank lines part the entries; values can stand above or below the molecule they belong to. Activity calls are given as the source filed them. No cut-off for these calls is given here.

How the values were obtained:
[1] = Upregulation of TP-53 mRNA expression in human HT1080 cells at 1 uM preincubated for 24 hrs followed by red LED irradiation for 20 mins measured after 3 hrs by RT-PCR analysis; type: functional, cell-based; details: HT-1080
[2] = Dark cytotoxicity against human HT1080 cells at 2 to 10 uM after 24 to 72 hrs by WST-1 assay; type: cell-based; details: ht-1080, 10 µM
[3] = Upregulation of GPX1 mRNA expression in human HT1080 cells at 1 uM preincubated for 24 hrs followed by red LED irradiation for 20 mins measured after 0.5 hrs by RT-PCR analysis relative to control; type: functional, cell-based; details: HT-1080
HT-1080 [4] = test: Increase in release of mitochondrial cytochrome c release in cytosolic extracts of human HT1080 cells at 1 uM preincubated for 24 hrs followed by red LED irradiation for 20 mins measured after 3 hrs by ELISA method; type: functional, cell-based
[5] = Upregulation of NQO1 mRNA expression in human HT1080 cells at 1 uM preincubated for 24 hrs followed by red LED irradiation for 20 mins measured after 0.5 hrs by RT-PCR analysis relative to control; type: functional, cell-based; details: HT-1080
HT-1080 [6] = test: Increase in release of mitochondrial cytochrome c release in cytosolic extracts of human HT1080 cells at 1 uM preincubated for 24 hrs followed by red LED irradiation for 20 mins measured after 0.5 hrs by ELISA method; type: functional, cell-based
[7] = Induction of necrosis in human HT1080 cells at 1 uM preincubated for 24 hrs measured after 6 hrs by Annexin V Alexa Fluor and PI staining based flow cytometry; type: cell-based; details: ht-1080, 6 h
[8] = Downregulation of BCL-2 mRNA expression in human HT1080 cells at 1 uM preincubated for 24 hrs followed by red LED irradiation for 20 mins measured after 0.5 to 24 hrs by RT-PCR analysis; type: functional, cell-based; details: HT-1080
HT-1080 [9] = test: Photocytotoxicity against human HT1080 cells at 1 uM preincubated for 24 hrs followed by red LED irradiation for 20 mins measured after 24 to 72 hrs by WST-1 assay; type: functional, cell-based
[10] = Dark cytotoxicity against human HT1080 cells at 2 uM after 24 to 72 hrs by WST-1 assay; type: cell-based; details: ht-1080, 2 µM
[11] = Upregulation of GPX1 mRNA expression in human HT1080 cells at 1 uM preincubated for 24 hrs followed by red LED irradiation for 20 mins measured after 3 to 24 hrs by RT-PCR analysis; type: functional, cell-based; details: HT-1080
[12] = Upregulation of BAX mRNA expression in human HT1080 cells at 1 uM preincubated for 24 hrs followed by red LED irradiation for 20 mins measured after 0.5 to 24 hrs by RT-PCR analysis; type: functional, cell-based; details: HT-1080
[13] = Drug uptake in human HT1080 cells at 1 uM by flow cytometric analysis; type: ADME, cell-based; details: ht-1080, 1 µM, TDE = time-dependent effect
[14] = Upregulation of SOD2 mRNA expression in human HT1080 cells at 1 uM preincubated for 24 hrs followed by red LED irradiation for 20 mins measured after 0.5 hrs by RT-PCR analysis relative to control; type: functional, cell-based; details: HT-1080
HT-1080 [15] = test: Induction of necrosis in human HT1080 cells at 1 uM preincubated for 24 hrs followed by red LED irradiation for 20 mins measured after 6 hrs by Annexin V Alexa Fluor and PI staining based flow cytometry; type: functional
[16] = Upregulation of APAF1 mRNA expression in human HT1080 cells at 1 uM preincubated for 24 hrs followed by red LED irradiation for 20 mins measured after 0.5 to 24 hrs by RT-PCR analysis; type: functional, cell-based; details: HT-1080
[17] = Induction of apoptosis in human HT1080 cells at 1 uM preincubated for 24 hrs measured after 6 hrs by Annexin V Alexa Fluor and PI staining based flow cytometry; type: cell-based; details: ht-1080, 6 h
HT-1080 [18] = test: Induction of DNA damage in human HT1080 cells at 1 uM preincubated for 24 hrs followed by red LED irradiation for 20 mins measured after 30 mins by ARP probe based flow cytometry; type: functional, cell-based
[19] = Induction of singlet oxygen generation in PBS at 5 uM measured within 5 to 10 mins by DPBF-based singlet oxygen trapping method in presence of light; type: physicochemical; details: buffer
[20] = Upregulation of NQO1 mRNA expression in human HT1080 cells at 1 uM preincubated for 24 hrs followed by red LED irradiation for 20 mins measured upto 24 hrs by RT-PCR analysis; type: functional, cell-based; details: HT-1080
HT-1080 [21] = test: Induction of reactive oxygen species generation in human HT1080 cells at 1 uM preincubated for 24 hrs followed by red LED irradiation for 20 mins measured upto 15 mins by DCFH-DA probe based flow cytometry; type: functional, cell-based
[22] = Drug uptake in mitochondria of human HT1080 cells at 1 uM incubated for 24 hrs by MitoTracker green dye based laser scanning confocal microscopy; type: ADME; details: ht-1080, 24 h
HT-1080 [23] = test: Induction of reactive oxygen species generation in human HT1080 cells assessed as increase in integrated median fluorescence intensity at 1 uM preincubated for 24 hrs followed by red LED irradiation for 20 mins measured after 1 min by DCFH-DA probe based flow cytometry relative to control; type: functional
[24] = Dark cytotoxicity against human HT1080 cells at 0.25 to 1 uM after 24 to 72 hrs by WST-1 assay; type: cell-based; details: ht-1080, 1 µM
[25] = Drug uptake in human HT1080 cells at 1 uM upto 6 hrs by flow cytometric analysis; type: ADME, cell-based; details: ht-1080, 6 h
HT-1080 [26] = test: Photocytotoxicity against human HT1080 cells at 1 uM preincubated for 24 hrs followed by red LED irradiation for 20 mins measured after 72 hrs by WST-1 assay; type: functional, cell-based
HT-1080 [27] = test: Photocytotoxicity against human HT1080 cells at 1 uM preincubated for 24 hrs followed by red LED irradiation for 20 mins measured after 48 to 72 hrs by WST-1 assay; type: functional, cell-based
[28] = Drug uptake in human HT1080 cells at 1 uM upto 24 hrs by flow cytometric analysis; type: ADME, cell-based; details: ht-1080, 24 h
[29] = Induction of singlet oxygen generation in PBS at 5 uM measured within 60 mins by DPBF-based singlet oxygen trapping method in presence of light; type: physicochemical; details: buffer, 1 h

Drug uptake [13]: tde | Activity [19]: Active | Drug uptake [22]: Active
Structure (SMILES): CCCCN1/C(=C/C2=C([O-])C(=C\C3=[N+](CCCC)c4ccc(I)cc4C3(C)C)/C2=O)C(C)(C)c2cc(I)ccc21
Activity [1]: inactive | Activity [2]: Dose-dependent effect | fold change (FC) [3]: 54.6 | Activity (HT-1080 [4]): inactive | fold change (FC) [5]: 5.56 | Activity (HT-1080 [6]): Active | Activity [7]: Non-toxic | Activity [8]: Active | Activity (HT-1080 [9]): Active | Activity [10]: Non-toxic | Activity [11]: inactive | Activity [12]: inactive | fold change (FC) [14]: 5.21 | Activity (HT-1080 [15]): 83% | Activity [16]: inactive | Activity [17]: Non-toxic | Activity (HT-1080 [18]): Active | Activity [20]: inactive | Activity (HT-1080 [21]): inactive | fold change (FC) (HT-1080 [23]): 32 | Activity [24]: Non-toxic

Drug uptake [25]: Active | Activity [19]: Active
Structure (SMILES): CC1(C)C(/C=C2/C(=O)C(/C=C3\Nc4ccc(Br)cc4C3(C)C)=C2O)=Nc2ccc(Br)cc21
Activity [2]: Dose-dependent effect | Activity (HT-1080 [9]): inactive | Activity [24]: Non-toxic

Drug uptake [13]: tde | Activity [19]: Active | Drug uptake [22]: Active
Structure (SMILES): CCCCN1/C(=C/C2=C([O-])C(=C\C3=[N+](CCCC)c4ccc(Br)cc4C3(C)C)/C2=O)C(C)(C)c2cc(Br)ccc21
Activity [1]: Active | Activity [2]: Dose-dependent effect | fold change (FC) [3]: 34.6 | Activity (HT-1080 [4]): inactive | fold change (FC) [5]: 3.39 | Activity (HT-1080 [6]): Active | Activity [7]: Non-toxic | Activity [8]: Active | Activity (HT-1080 [9]): Active | Activity [10]: Non-toxic | Activity [11]: inactive | Activity [12]: inactive | Activity [14]: inactive | Activity (HT-1080 [15]): 81.9% | Activity [16]: inactive | Activity [17]: Non-toxic | Activity (HT-1080 [18]): Active | Activity [20]: inactive | Activity (HT-1080 [21]): inactive | fold change (FC) (HT-1080 [23]): 15.32 | Activity [24]: Non-toxic

Drug uptake [13]: tde | Activity [19]: Active
Structure (SMILES): CCN1/C(=C/C2=C([O-])C(=C\C3=[N+](CC)c4ccc(I)cc4C3(C)C)/C2=O)C(C)(C)c2cc(I)ccc21
Activity [2]: Dose-dependent effect | Activity (HT-1080 [9]): inactive | Activity [24]: Non-toxic

Drug uptake [25]: Active | Activity [19]: Active
Structure (SMILES): CC1(C)C(/C=C2/C(=O)C(/C=C3\Nc4ccc(I)cc4C3(C)C)=C2O)=Nc2ccc(I)cc21
Activity [2]: Dose-dependent effect | Activity (HT-1080 [26]): Active | Activity [24]: Non-toxic

Drug uptake [13]: tde | Activity [19]: Active
Structure (SMILES): CCN1/C(=C/C2=C([O-])C(=C\C3=[N+](CC)c4ccc(Br)cc4C3(C)C)/C2=O)C(C)(C)c2cc(Br)ccc21
Activity [2]: Dose-dependent effect | Activity (HT-1080 [27]): Active | Activity [10]: Non-toxic | Activity [24]: Non-toxic

Drug uptake [28]: Active | Activity [29]: Active
Structure (SMILES): CC1(C)C(/C=C2/C(=O)C(/C=C3\Nc4ccccc4C3(C)C)=C2O)=Nc2ccccc21
Activity [2]: Dose-dependent effect | Activity (HT-1080 [9]): inactive | Activity [24]: Non-toxic
